# Data: PMC11714206, “Massively Parallel Screening of Toll/Interleukin‐1 Receptor (TIR)‐Derived Peptides Reveals Multiple Toll‐Like Receptors (TLRs)‐Targeting Immunomodulatory Peptides” (Advanced Science, 2024)
# Target: T1, MyD88^TIR (Homo sapiens, UniProt Q99836)
# T1 construct: MyD88 (residues 148–296); 6xHis; made in house; host or cells: E. coli BL21 (DE3)
# Test: T‐Surf phage library (P8 and P3) selection against MyD88^TIR, four rounds, NGS read counts
# Assay type: binding
# Settings: for Population: 4th round of selection against MyD88 TIR, share of NGS reads; for P3_MyD88 Rank (after) / P3_MyD88 Rank (before): P3 library; for P8_MyD88 Rank (after) / P8_MyD88 Rank (before): P8 library
# Procedure, shortened: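 P8 and P3 T‐Surf libraries panned against plate-coated TIR domains (5 µg mL^−1), 1 h binding at RT, acid elution and TG1/helper-phage amplification per round. After four rounds, pools were PCR-barcoded and sequenced (NovaSeq, 100 bp paired-end, Phred ≥30); peptides ranked by read counts.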
# [1] = P8_MyD88: rank by NGS read count after grouping
# [2] = P8_MyD88: rank by NGS read count before grouping
# [3] = P3_MyD88: rank by count after grouping
# [4] = P3_MyD88: rank by count before grouping
# [5] = P8_MyD88: rank by count after grouping
# [6] = P8_MyD88: rank by count before grouping
# [7] = P8_MyD88 pool: P8 T-Surf phage library
# [8] = selection against MyD88 TIR, rank by count after grouping
# [9] = selection against MyD88 TIR, rank by count before grouping
# [10] = selection against MyD88, rank after grouping
# [11] = selection against MyD88, rank before grouping
# [12] = 4R selection against MyD88, rank after grouping
# [13] = 4R selection against MyD88, rank before grouping
# [14] = selection against MyD88, rank by count after grouping
# [15] = selection against MyD88, rank by count before grouping
# T1 sequence (Q99836 148-296): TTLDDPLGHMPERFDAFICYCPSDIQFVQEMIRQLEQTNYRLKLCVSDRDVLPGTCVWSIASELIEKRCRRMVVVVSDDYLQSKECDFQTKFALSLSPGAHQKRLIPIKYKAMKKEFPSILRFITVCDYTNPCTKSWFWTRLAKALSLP
sequence,measurement,setting,value
FDASTWFFQEWARFL,Rank (after),[1],930
same,Rank (before),[2],1313
DHHLDLPRGKSFKPEILG,Rank (after),[3],451
same,Rank (before),[4],1996
PQDLQWFYERLVSLI,Rank (after),[5],150
same,Rank (before),[6],186
same,Population,[7],0.00694%
DHHLDLPRGKPIKREILG,P3_MyD88 Rank (after),[8],244
same,P3_MyD88 Rank (before),[9],2040
SDLRVVEDGSVSPLEM,Rank (after),[3],104
same,Rank (before),[4],1178
PQDLDWFYERLESLF,Rank (after),[1],1019
same,Rank (before),[2],3427
YELDFSHFWLFDAGGDA,P8_MyD88 Rank (after),[8],265
same,P8_MyD88 Rank (before),[9],537
DPQDLDWFYECPVSMF,P8_MyD88 Rank (after),[10],535
same,P8_MyD88 Rank (before),[11],2754
YLRADELLKILYANETM,Rank (after),[1],870
same,Rank (before),[2],2072
VANILGYHWIAREHFV,Rank (after),[5],474
same,Rank (before),[6],2164
LSRVPSVHDFRGLMSI,Rank (after),[3],416
same,Rank (before),[4],2389
DHHLDLPRGKAIKPEFW,P3_MyD88 Rank (after),[8],241
same,P3_MyD88 Rank (before),[9],951
SEMRVVEDGSVSPLEM,P3_MyD88 Rank (after),[10],495
same,P3_MyD88 Rank (before),[11],3071
LEANDSLFWDRLLYSLHVTE,Rank (after),[5],179
same,Rank (before),[6],214
DSVCLDRLLYSLHVTE,P8_MyD88 Rank (after),[12],582
same,P8_MyD88 Rank (before),[13],3130
KWLWEKRTCGHSRNTA,P3_MyD88 Rank (after),[14],676
same,P3_MyD88 Rank (before),[15],3585
EWIWDKLIYALSRNPH,P3_MyD88 Rank (after),[12],586
same,P3_MyD88 Rank (before),[13],2127
AVEKETDKIQTPPKNA,Rank (after),[3],173
same,Rank (before),[4],1939
SELREVVGGAVSQLVM,P3_MyD88 Rank (after),[10],575
same,P3_MyD88 Rank (before),[11],3061
VQWDDPWFWDKLAY,P8_MyD88 Rank (after),[12],623
same,P8_MyD88 Rank (before),[13],2231
FFWMQLRSLLGTPGGL,P8_MyD88 Rank (after),[8],194
same,P8_MyD88 Rank (before),[9],252
IDDDHLTYLVRLLLSLL,P8_MyD88 Rank (after),[10],539
same,P8_MyD88 Rank (before),[11],3634
PSEVRKQTGSLAKAAL,P3_MyD88 Rank (after),[12],593
same,P3_MyD88 Rank (before),[13],2756
YAASPWWFDELVKTVR,Rank (after),[5],418
same,Rank (before),[6],1762
LVAHEISNNMKIFATI,Rank (after),[3],143
same,Rank (before),[4],2283
NHDLDLPRGKAIKPEILG,P3_MyD88 Rank (after),[12],606
same,P3_MyD88 Rank (before),[13],3460
HSEWACHELYFSHFWP,P3_MyD88 Rank (after),[10],551
same,P3_MyD88 Rank (before),[11],2827
YYDSRWALDELWLILEQR,P8_MyD88 Rank (after),[14],749
same,P8_MyD88 Rank (before),[15],1673
FDYELQQSLFHALIMR,P8_MyD88 Rank (after),[8],213
same,P8_MyD88 Rank (before),[9],296
LVAHEISKKMKIFRP,Rank (after),[3],413
same,Rank (before),[4],2302
DPPVLEWFYESLFSQM,P8_MyD88 Rank (after),[12],601
same,P8_MyD88 Rank (before),[13],2624
LVAHEISKKLKIFATM,P3_MyD88 Rank (after),[14],709
same,P3_MyD88 Rank (before),[15],2288
YLQWGYSWFWDRLRFA,P3_MyD88 Rank (after),[8],259
same,P3_MyD88 Rank (before),[9],1558
WALDELLQILHARRTE,P8_MyD88 Rank (after),[14],702
same,P8_MyD88 Rank (before),[15],1457
VQCGDPWCWEKLAYAM,P8_MyD88 Rank (after),[12],596
same,P8_MyD88 Rank (before),[13],2212
LKVESWRQALEKAGKL,P8_MyD88 Rank (after),[8],211
same,P8_MyD88 Rank (before),[9],326
YHPLDLPRGKAIKPEILG,Rank (after),[3],189
same,Rank (before),[4],1615
YAFTGHLHHALRLNKIETF,Rank (after),[3],95
same,Rank (before),[4],278
WALDELLQILHARELLQIA,P8_MyD88 Rank (after),[12],632
same,P8_MyD88 Rank (before),[13],1453
WALRELEAILQSFQLS,Rank (after),[5],142
same,Rank (before),[6],154
same,Population,[7],0.01%
WDFASNMEQLWERLYY,Rank (after),[1],1014
same,Rank (before),[2],1625
QDLGWFYERLISQILK,Rank (after),[5],108
same,Rank (before),[6],114
same,Population,[7],0.02%
LGYHWIDWSILWALK,P8_MyD88 Rank (after),[8],231
same,P8_MyD88 Rank (before),[9],409
PEKDNGGENAFINTL,P3_MyD88 Rank (after),[14],731
same,P3_MyD88 Rank (before),[15],2715
SELRVEDDGSVIPLEM,P3_MyD88 Rank (after),[8],201
same,P3_MyD88 Rank (before),[9],3055
LGYHWIDWEYFVALK,P8_MyD88 Rank (after),[8],235
same,P8_MyD88 Rank (before),[9],599
YELVHVWSSKANSLVG,Population,P3_MyD88 pool: P3 T-Surf phage library,0.0032%
DPQDLQWFYERLVSLL,Population,[7],0.03%
WALDELLQILHAKETM,P8_MyD88 Rank (after),[12],598
same,P8_MyD88 Rank (before),[13],1458
